According to patent publication US20160368919A1, “NOVEL PYRIDINE PYRAZINONES AS BET-FAMILY BROMODOMAIN INHIBITORS” (Pfizer Inc., priority 2015, published 2016):

Key:
Format in all cases: cell-based
[1] = system: MYC, SOX2, involucrin and Keratin 14 expression in HCC2429 cells; experiment: Biomarker analysis in HCC2429 cells (RT-PCR, Western blot)
Description: HCC2429 cells were plated into a 6-well plate (250,000 cells/well). Cells were treated with compounds or control vehicle (DMSO) at the indicated concentrations for 72 hrs. Cells were collected, washed in PBS, and split for western blot and RNA analysis.

[2] = system: C4-2AR-F876L cells, AR(+); experiment: CRPC cell proliferation assay (CellTiter-Glo), C4-2AR-F876L; details: CTG at 96h
Description: (§1) Castrate-Resistant Prostate Cancer (CRPC) Cell Proliferation Assay • Cells were seeded into 96-well plates at 2,000-10,000 cells/well in 100 uL medium. Four AR(+) cell lines (LnCaP, C4-2 (parental), C4-2AR-WT and C4-2AR—F876L) and one AR(−) cell line (DU-145) were studied. Compound treated cells were analyzed for cell density at 96h, using CellTiter-Glo® (CTG) reagent (Promega).

DU-145 cells, AR(−) = experiment: CRPC cell proliferation assay (CellTiter-Glo), DU-145; details: CTG at 96h
Description: as §1

[3] = system: CRPC cell lines (LnCaP, C4-2, C4-2AR-WT, C4-2AR-F876L, DU-145); experiment: CRPC cell proliferation assay, summary over the cell lines; details: AR(+) cell lines, CTG at 96h
Description: Castrate-Resistant Prostate Cancer (CRPC) Cell Proliferation Assay • Cells were seeded into 96-well plates at 2,000-10,000 cells/well in 100 uL medium. Four AR(+) cell lines (LnCaP, C4-2 (parental), C4-2AR-WT and C4-2AR—F876L) and one AR(−) cell line (DU-145) were studied. Compound treated cells were analyzed for cell density at 96h, using CellTiter-Glo® (CTG) reagent (Promega). […] Example 10 and IBET-151 BET had submicromolar IC50 values in the AR(+) cell lines. The inhibitors maintained potency in C4-2 cells engineered to express wild type (WT) AR receptor (C4-2-AR-WT), as well as cells engineered to express the F876L mutation (C4-2-AR-F876L) that confers resistance to androgen receptor (AR) antagonists.

OPM-2 cells = experiment: OPM-2 cell proliferation assay (CellTiter-Glo)
Description: MM1.S (dexamethasone sensitive) and OPM-2 cells were purchased from ATCC and maintained in RPMI-1640 medium with 10% fetal bovine serum at 37 degrees, 5% CO2. Cells were seeded at 10,000 cells/well in 100 uL medium. The following day compounds or control vehicle (DMSO) were added at indicated concentrations in 10 ul volume. Compound treated OPM-2 cells and MM1.S cell were analyzed for cell density at 72h and 96h, respectively, using CellTiter-Glo® (CTG) reagent (Promega). The CTG assay measures the amount of ATP present, which indicates the number of viable cells in culture.

C4-2AR-WT cells, AR(+) = experiment: CRPC cell proliferation assay (CellTiter-Glo), C4-2AR-WT; details: CTG at 96h
Description: as §1

HCC2429 cells = experiment: NMC HCC2429 cell proliferation assay (CellTiter-Glo); details: Homo sapiens; HCC2429, CTG at 96h
Description: NMC HCC2429 Cell Proliferation Assay • HCC2429 cells were plated into a 96-well plate (10,000 cells/well). Compounds or control vehicle (DMSO) were added at indicated concentrations. Compound-treated HCC2429 cells were analyzed for cell density at 96h using CellTiter-Glo® (CTG) reagent (Promega).

[4] = system: C4-2 (parental) cells, AR(+); experiment: CRPC cell proliferation assay (CellTiter-Glo), C4-2; details: CTG at 96h
Description: as §1

[5] = HCC2429, Western blot, 72 hrs, concentration-dependent

IC50 (DU-145 cells, AR(−); Homo sapiens): 1.88 µM
IC50 values in the AR(+) cell lines [3]: submicromolar
IC50 (HCC2429 cells): 0.047 µM
SMILES: CCC(=O)N(C)c1ccc2nc(NCCC(=O)O)c(=O)n([C@@H](CC)c3ccccc3)c2n1 [Example 10, N-{6-[methyl(propanoyl)amino]-3-oxo-4-[(1S)-1-phenylpropyl]-3,4-dihydropyrido[2,3-b]pyrazin-2-yl}-beta-alanine]
mRNA expression of involucrin ([1]; HCC2429, RT-PCR, 72 hours, 50 nM, 200 nM and 500 nM, dose dependent): increased
MYC protein level [1, 5]: down-regulated
SOX2 protein level [1, 5]: down-regulated
IC50 [2]: 0.56 µM
Max % Inh [2]: 85%
Max % Inh (DU-145 cells, AR(−)): 55%
IC50 (OPM-2 cells; Homo sapiens, OPM-2, CTG at 72h): 0.006 µM
inhibition of proliferation of OPM-2 cells (OPM-2 cells; dose dependent manner, FIG. 1.B): inhibited proliferation
IC50 (C4-2AR-WT cells, AR(+)): 0.5 µM
Max % Inh (C4-2AR-WT cells, AR(+)): 85%
IC50 [4]: 0.5 µM
Max % Inh [4]: 87%
